Source: ChEMBL document CHEMBL2169765, “Structural basis for the accommodation of bis- and tris-aromatic derivatives in vitamin D nuclear receptor” (J Med Chem, 2012)

Key:
Type in all cases: cell-based
[1] = target: T1, Vitamin D3 receptor (Homo sapiens) (UniProt P11473); assay: Ratio of calcitriol EC50 to compound EC50 for full length human VDR expressed in human HeLa cells
T1 sequence (whole entry): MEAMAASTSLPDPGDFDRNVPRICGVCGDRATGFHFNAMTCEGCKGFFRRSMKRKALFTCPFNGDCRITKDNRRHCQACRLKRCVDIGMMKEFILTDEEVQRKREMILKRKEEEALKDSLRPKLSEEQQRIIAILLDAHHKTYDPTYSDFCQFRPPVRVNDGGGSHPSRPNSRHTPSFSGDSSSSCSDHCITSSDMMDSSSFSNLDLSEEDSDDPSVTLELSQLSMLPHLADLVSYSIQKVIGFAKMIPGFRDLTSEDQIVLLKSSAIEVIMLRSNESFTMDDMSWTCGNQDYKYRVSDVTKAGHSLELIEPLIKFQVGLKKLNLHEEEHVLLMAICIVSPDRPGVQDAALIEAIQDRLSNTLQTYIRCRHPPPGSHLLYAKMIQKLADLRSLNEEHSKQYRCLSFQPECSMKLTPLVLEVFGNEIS

Vitamin D3 receptor [2] = target: T2, Vitamin D3 receptor (Homo sapiens, UniProt P11473); assay: Transactivation of full length human VDR expressed in human HeLa cells assessed as increase in CYP24 transcription after 18 hrs by luciferase reporter gene assay
T2 sequence (P11473 whole entry): T1 sequence (whole entry)

Vitamin D3 receptor [3] = target: T2, Vitamin D3 receptor; assay: Transactivation of GAL4-fused VDR ligand binding domain expressed in human HeLa cells after 16 hrs by luciferase reporter gene assay

Row | Ratio EC50 [1] | EC50 (Vitamin D3 receptor [2]) [nM] | EC50 (Vitamin D3 receptor [3]) [nM] | Structure (SMILES)
1 | – | – | 5 | CC/C(=C\C=C\C(O)(C(F)(F)F)C(F)(F)F)c1cccc(OCc2ccc(CO)c(CO)c2)c1
2 | – | 2.8 | 1.7 | CC/C(=C\C=C\C(O)(C(F)(F)F)C(F)(F)F)c1cccc(CCc2ccc(CO)c(CO)c2)c1

The remaining lines, values behind:

Row | Structure (SMILES) | Ratio EC50 [1] | EC50 (Vitamin D3 receptor [2]) [nM] | EC50 (Vitamin D3 receptor [3]) [nM]
3 | CCCc1cc(C(O)(CC)CC)ccc1-c1cc(CCc2ccc(CO)c(CO)c2)ccc1C | 4 | 0.5 | –
4 | CC/C(=C\C=C\C(O)(CC)CC)c1cccc(OCc2ccc(CO)c(CO)c2)c1 | – | 49 | –
5 | CCCc1cc(C(O)(CC)CC)ccc1-c1cc(OCc2ccc(CO)c(CO)c2)ccc1CC | – | 2.2 | –
